Literature values, collected in US12685710B2, “Administration of ciclopirox with no adversal gastrointestinal toxicity” (ATLAS MOLECULAR PHARMA, S.L., priority 2021, dated 2026).

System: patients with hematological malignancies

Cc1cc(C2CCCCC2)n(O)c(=O)c1 [ciclopirox olamine, 6-cyclohexyl-1-hydroxy-4-methyl-2 (1H)-pyridone with 2-aminoethanol in a 1:1 ratio]
grade 3 GI dose limiting toxicity (DLTs) and bowel inflammation, patients affected in cohort (oral, OraSweet formulation, 80 mg/m^2 (2.2 mg/kg) 4 times daily): 3/4 | tolerability of once-daily dosing (oral, once daily up to and including 40 mg/m^2 (1.1 mg/kg)): well tolerated | gastrointestinal toxicity in Phase I study (patients treated with ciclopirox olamine): showed gastrointestinal toxicity
